Experimental data published in patent US12495798B2, “Nicotinamide compound and herbicidal composition comprising compound” (KOREA RESEARCH INSTITUTE OF CHEMICAL TECHNOLOGY, priority 2019, dated 2025).

Assays:
Assay type in all cases: in vivo
bindweed [1] = assay: Herbicidal activity test against upland field weeds (foliar treatment test); settings: scale 0-100; for pest or weed control at 50 g/ha: 50 g ai/ha
Method in brief: (§1)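 Visual 0–100 control ratings relative to untreated plants, taken 14 (or 21) days after spraying foliage at 50 or 75 g a.i./ha. Spray solution: 50% acetone with 0.1% Tween-20; plants kept in greenhouse at 30±5 °C, 14 h light/10 h dark.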

crabgrass [2] = assay: Herbicidal activity test against upland field weeds (soil treatment test); set-up: key to Soil treatment herbicidal activity, Crabgrass: 0 (no control); 100 (complete control); settings: scale 0 (no control) to 100 (complete control); for Soil treatment herbicidal activity, Crabgrass / pest or weed control at 50 g/ha: 50 g ai/ha
Method in brief: (§2)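 Weed control scored visually on a 0 (none) to 100 (complete) scale versus untreated pots at 14 or 21 days in greenhouse (30±5 °C, 14 h light). Test compounds, 50 or 75 g a.i./ha in 50% acetone/0.1% Tween-20, hand-sprayed onto soil one day post-sowing.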

barnyard grass = assay: as above; set-up: key to Soil treatment herbicidal activity, barnyard grass: 0 (no control); 100 (complete control); settings: scale 0 (no control) to 100 (complete control)
Method in brief: as §2

quack grass = assay: Herbicidal activity test against upland field weeds (foliar treatment test); set-up: key to Foliar treatment herbicidal activity, quack grass: 0 (no control); 100 (complete control); settings: scale 0-100
Method in brief: as §1

velvetleaf = assay: as above; set-up: key to Foliar treatment herbicidal activity, velvet leaf: 0 (no control); 100 (complete control); settings: for Foliar treatment herbicidal activity, velvet leaf / pest or weed control at 50 g/ha: 50 g ai/ha; for Foliar treatment herbicidal activity, velvet leaf: scale 0-100
Method in brief: as §1

rice = assay: Phytotoxicity test for field crops (soil treatment test); set-up: key: 0 (no harm); 9 (complete withered)
Method in brief: (§3)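 Applied as a soil treatment one day after sowing, at final rates of 19˜300 g a.i./ha. Damage is graded visually (0 = no harm, 9 = complete withered) compared with untreated control, 10 and 20 days after treatment.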

cotton = assay: as above; set-up: key: 0 (no harm); 9 (complete withered)
Method in brief: as §3

soybean = assay: as above; set-up: key: 0 (no harm); 9 (complete withered)
Method in brief: as §3

wheat = assay: as above; set-up: key: 0 (no harm); 9 (complete withered)
Method in brief: as §3

corn = assay: as above; set-up: key: 0 (no harm); 9 (complete withered)
Method in brief: as §3

bindweed [3] = assay: Herbicidal activity test against upland field weeds (soil treatment test); set-up: key to Soil treatment herbicidal activity, Bindweed: 0 (no control); 100 (complete control); settings: scale 0 (no control) to 100 (complete control)
Method in brief: as §2

crabgrass [4] = assay: Herbicidal activity test against upland field weeds (foliar treatment test); settings: Digitaria sanguinalis, scale 0-100; for pest or weed control at 50 g/ha: 50 g ai/ha
Method in brief: as §1

indian jointvetch = assay: Herbicidal activity test against upland field weeds (soil treatment test); set-up: key to Soil treatment herbicidal activity, Indian jointvetch: 0 (no control); 100 (complete control); settings: scale 0 (no control) to 100 (complete control)
Method in brief: as §2

[5] = 50 g ai/ha, Rice (10 days after treatment)
[6] = 50 g ai/ha, Rice (20 days after treatment)
[7] = 100 g ai/ha, Rice (10 days after treatment)
[8] = 100 g ai/ha, Rice (20 days after treatment)
[9] = 50 g ai/ha, Cotton (10 days after treatment)
[10] = 50 g ai/ha, Cotton (20 days after treatment)
[11] = 100 g ai/ha, Cotton (10 days after treatment)
[12] = 100 g ai/ha, Cotton (20 days after treatment)
[13] = 50 g ai/ha, Soybean (10 days after treatment)
[14] = 50 g ai/ha, Soybean (20 days after treatment)
[15] = 100 g ai/ha, Soybean (10 days after treatment)
[16] = 100 g ai/ha, Soybean (20 days after treatment)
[17] = 50 g ai/ha, Wheat (10 days after treatment)
[18] = 50 g ai/ha, Wheat (20 days after treatment)
[19] = 100 g ai/ha, Wheat (10 days after treatment)
[20] = 100 g ai/ha, Wheat (20 days after treatment)
[21] = 50 g ai/ha, Corn (10 days after treatment)
[22] = 50 g ai/ha, Corn (20 days after treatment)
[23] = 100 g ai/ha, Corn (10 days after treatment)
[24] = 100 g ai/ha, Corn (20 days after treatment)
[25] = Abutilon theophrasti, scale 0-100, read-out: Foliar treatment herbicidal activity, velvet leaf

| SMILES | pest or weed control at 50 g/ha (bindweed [1]) [%] | Soil treatment phytotoxicity, Rice (rice; [5]) | Soil treatment phytotoxicity, Rice (rice; [6]) | Soil treatment phytotoxicity, Rice (rice; [7]) | Soil treatment phytotoxicity, Rice (rice; [8]) | Soil treatment phytotoxicity, Cotton (cotton; [9]) | Soil treatment phytotoxicity, Cotton (cotton; [10]) | Soil treatment phytotoxicity, Cotton (cotton; [11]) | Soil treatment phytotoxicity, Cotton (cotton; [12]) | Soil treatment phytotoxicity, Soybean (soybean; [13]) | Soil treatment phytotoxicity, Soybean (soybean; [15]) | Soil treatment phytotoxicity, Soybean (soybean; [16]) | Soil treatment phytotoxicity, Wheat (wheat; [17]) | Soil treatment phytotoxicity, Wheat (wheat; [18]) | Soil treatment phytotoxicity, Wheat (wheat; [19]) | Soil treatment phytotoxicity, Wheat (wheat; [20]) | Soil treatment phytotoxicity, Corn (corn; [21]) | Soil treatment phytotoxicity, Corn (corn; [22]) | Soil treatment phytotoxicity, Corn (corn; [23]) | Soil treatment phytotoxicity, Corn (corn; [24]) | other results |
| --- | --- | --- | --- | --- | --- | --- | --- | --- | --- | --- | --- | --- | --- | --- | --- | --- | --- | --- | --- | --- | --- |
| CON(Cc1nnn(C)n1)c1nc(C(F)(F)F)ccc1C(=O)Nc1nnnn1C [Compound No. 2-30, 2-(methoxy((2-methyl-2H-tetrazol-5-yl)methyl)amino)-N-(1-methyl-1H-tetrazol-5-yl)-6-(trifluoromethyl)nicotinamide] | 60 | 4 | 9 | 6 | 9 | 2 | 9 | 2 | 9 | 7 | 7 | 7 | 0 | 1 | 0 | 1 | 0 | 0 | 0 | 0 | Soil treatment herbicidal activity, Crabgrass (crabgrass [2]): 100; Soil treatment herbicidal activity, barnyard grass (barnyard grass; 50 g ai/ha): 100; Foliar treatment herbicidal activity, quack grass (quack grass; 50 g ai/ha): 0; Foliar treatment herbicidal activity, velvet leaf (velvetleaf): 100; Soil treatment phytotoxicity, Soybean (soybean; [14]): 7; pest or weed control at 50 g/ha (bindweed [3]; 50 g ai/ha): 70%; pest or weed control at 50 g/ha (crabgrass [4]): 95%; Soil treatment herbicidal activity, Indian jointvetch (indian jointvetch; 50 g ai/ha): 100 |
| Cn1nnnc1COCc1nc(C(F)(F)F)ccc1C(=O)Nc1nnnn1C [Compound No. 1-61, N-(1-methyl-1H-tetrazol-5-yl)-2-(((1-methyl-1H-tetrazol-5-yl)methoxy)methyl)-6-(trifluoromethyl)nicotinamide] | 70 | 0 | 1 | 1 | 6 | 1 | 1 | 2 | 2 | 0 | 3 | 6 | 0 | 0 | 0 | 0 | 0 | 0 | 0 | 0 | pest or weed control at 50 g/ha (crabgrass [2]; Digitaria sanguinalis): 40%; pest or weed control at 50 g/ha (barnyard grass; Echinochloa crus-galli, 50 g ai/ha): 20%; Foliar treatment herbicidal activity, quack grass (quack grass; 50 g ai/ha): 0; Foliar treatment herbicidal activity, velvet leaf (velvetleaf): 100; Soil treatment herbicidal activity, Bindweed (bindweed [3]; 50 g ai/ha): 0; pest or weed control at 50 g/ha (crabgrass [4]): 95%; Soil treatment herbicidal activity, Indian jointvetch (indian jointvetch; 50 g ai/ha): 100 |
| Cn1nnc(COCc2nc(C(F)(F)C(F)(F)F)ccc2C(=O)Nc2nnnn2C)n1 [Compound No. 2-81, N-(1-methyl-1H-tetrazol-5-yl)-2-(((2-methyl-2H-tetrazol-5-yl)methoxy)methyl)-6-(perfluoroethyl)nicotinamide] | 60 | 6 | 7 | 8 | 8 | 0 | 4 | 1 | 6 | 0 | 0 | 0 | 0 | 0 | 0 | 0 | 0 | 0 | 1 | 0 | Soil treatment herbicidal activity, Crabgrass (crabgrass [2]): 100; Soil treatment herbicidal activity, barnyard grass (barnyard grass; 50 g ai/ha): 100; Foliar treatment herbicidal activity, quack grass (quack grass; 50 g ai/ha): 0; pest or weed control at 50 g/ha (velvetleaf; [25]): 90%; Soil treatment phytotoxicity, Soybean (soybean; [14]): 0; pest or weed control at 50 g/ha (bindweed [3]; 50 g ai/ha): 70%; pest or weed control at 50 g/ha (crabgrass [4]): 70%; Soil treatment herbicidal activity, Indian jointvetch (indian jointvetch; 50 g ai/ha): 100 |
| CN(Cc1nnn(C)n1)c1nc(C(F)(F)F)ccc1C(=O)Nc1nnnn1C [Compound No. 2-26, 2-(methyl((2-methyl-2H-tetrazol-5-yl)methyl)amino)-N-(1-methyl-1H-tetrazol-5-yl)-6-(trifluoromethyl)nicotinamide] |  | 3 | 9 | 6 | 9 | 1 | 4 | 1 | 4 | 6 | 7 | 7 | 0 | 0 | 0 | 0 | 0 | 0 | 0 | 0 | pest or weed control at 75 g/ha (bindweed [1]; 75 g ai/ha): 95%; pest or weed control at 75 g/ha (crabgrass [2]; Digitaria sanguinalis, 75 g ai/ha): 98%; Soil treatment herbicidal activity, barnyard grass (barnyard grass; 75 g ai/ha): 100; Foliar treatment herbicidal activity, quack grass (quack grass; 75 g ai/ha): 0; pest or weed control at 75 g/ha (velvetleaf; Abutilon theophrasti, 75 g ai/ha, scale 0-100, read-out: Foliar treatment herbicidal activity, velvet leaf): 98%; Soil treatment phytotoxicity, Soybean (soybean; [14]): 4; Soil treatment herbicidal activity, Bindweed (bindweed [3]; 75 g ai/ha): 100; pest or weed control at 75 g/ha (crabgrass [4]; 75 g ai/ha): 95%; Soil treatment herbicidal activity, Indian jointvetch (indian jointvetch; 75 g ai/ha): 100 |
| Cn1nnnc1COc1nc(C(F)(F)F)ccc1C(=S)Nc1nnnn1C [Compound No. 1-43, N-(1-methyl-1H-tetrazol-5-yl)-2-((1-methyl-1H-tetrazol-5-yl)methoxy)-6-(trifluoromethyl)pyridin-3-carbothioamide] | 70 | 5 | 5 | 7 | 9 | 0 | 1 | 1 | 2 | 0 | 0 | 0 | 0 | 0 | 3 | 3 | 0 | 0 | 1 | 0 | pest or weed control at 50 g/ha (crabgrass [2]; Digitaria sanguinalis): 20%; Soil treatment herbicidal activity, barnyard grass (barnyard grass; 50 g ai/ha): 0; pest or weed control at 50 g/ha (quack grass; 50 g ai/ha): 30%; pest or weed control at 50 g/ha (velvetleaf; [25]): 90%; Soil treatment phytotoxicity, Soybean (soybean; [14]): 0; Soil treatment herbicidal activity, Bindweed (bindweed [3]; 50 g ai/ha): 0; pest or weed control at 50 g/ha (crabgrass [4]): 95%; Soil treatment herbicidal activity, Indian jointvetch (indian jointvetch; 50 g ai/ha): 0 |
